Read-outs that look alike come from different tables or passages of the source. Numbered stars: 1 amine (or outer) side, 2 acyl side, 3 side chain; on linkers, the order of the positions; unused ones are H or OH. Bridge positions count the residues as written; N and C are the ends. Square brackets hold non-standard residues; d marks the D form. Peptide text beside a SMILES is read from it. * marks the point of attachment. Tridecanoyl(12-Me) = CC(C)CCCCCCCCCCC(=O)*; X1 = NC(=O)CC(O)C(N[*:1])C(=O)[*:2]; NMeF = CN[CH](Cc1ccccc1)C(=O)O; NMeN = CN[CH](CC(N)=O)C(=O)O
Experiments:
[1] = tested on: Puccinia recondita f. sp. tritici; assay: Leaf disc/segment test on wheat, Puccinia recondita f. sp. tritici (Brown Rust), 7-9 days after application; assay type: in vivo
Procedure: (§1) Leaf disks or leaf segments of various plant species were cut from plants grown in the greenhouse. The cut leaf disks, or segments were placed in multiwell plates (24-well format) onto water agar. The leaf disks were sprayed with a test solution before inoculation with the fungal spores. Compounds to be tested were prepared as DMSO solutions (max. 10 mg/ml) which were diluted to the appropriate concentration with water plus 0.025% Tween® 20 just before spraying. The inoculated leaf disks or segments were incubated under defined conditions (temperature, relative humidity, light, etc.) according to the respective test system. A single evaluation of disease level was carried out by visual evaluation 3-9 days days after inoculation, depending on the pathosystem as indicated below. Percent disease control relative to the untreated check leaf disks or segments was then calculated.
Puccinia recondita f. Sp. Tritici/Wheat/Leaf Disc (Brown Rust)
Wheat leaf segments cv. Kanzler were placed on agar in multiwell plates (24-well format) and sprayed with the formulated test compound diluted in water. The leaf disks were inoculated with a spore suspension of the fungus 1 day after application. The inoculated leaf segments were incubated at 19 °C and 75% rh under a light regime of 12 h light/12 h darkness in a climate cabinet and the activity of a compound was assessed as percent disease control compared to untreated when an appropriate level of disease damage appears in untreated check leaf segments (7-9 days after application).

Glomerella lagenarium = assay: Liquid culture, Glomerella lagenarium (Colletotrichum lagenarium), Anthracnose, 3-4 days; assay type: cell-based; settings: Colletotrichum orbiculare, read-out: % reduction fungal growth
Procedure: (§2) Mycelia fragments or conidia suspensions of a fungus, prepared either freshly from liquid cultures of the fungus or from cryogenic storage, were directly mixed into nutrient broth.
(§3) A stock solution for compound of Formula I(a) and Formula I(b) was produced in DMSO (max. 10 mg/ml), which was diluted with water plus 0.025% Tween®20 to produce a 10× concentrated sample and 10 μl of this solution was pipetted into a microtiter plate (96-well format). The nutrient broth containing the fungal spores/mycelia fragments was then added to give an end concentration of the tested compound. The test plates were incubated in the dark at 24 °C and 96% rh. The inhibition of fungal growth was determined photometrically after 2-7 days, depending on the pathosystem, and percent antifungal activity relative to the untreated check was calculated.
(§4) The effect of the test compound (Formula I(a), I(b) and Lipopeptin A) was tested against the following fungi under the conditions as outlined above and specifically herein below:
Glomerella lagenarium (Colletotrichum lagenarium)/Liquid Culture (Anthracnose)
Conidia of the fungus from cryogenic storage were directly mixed into nutrient broth (PDB potato dextrose broth). The inhibition of growth was measured photometrically 3-4 days after application.

Botryotinia fuckeliana = assay: Liquid culture, Botryotinia fuckeliana (Botrytis cinerea), Gray Mould, 3-4 days; assay type: cell-based
Procedure: as §2, §3, §4
Botryotinia fuckeliana (Botrytis cinerea)/Liquid Culture (Gray Mould)
Conidia of the fungus from cryogenic storage were directly mixed into nutrient broth (Vogels broth). The inhibition of growth is determined photometrically 3-4 days after application.

Mycosphaerella arachidis = assay: Liquid culture, Mycosphaerella arachidis (Cercospora arachidicola), early leaf spot, 4-5 days; assay type: cell-based; settings: Mycosphaerella arachidis, read-out: % reduction fungal growth
Procedure: as §2, §3, §4
Mycosphaerella arachidis (Cercospora arachidicola)/liquid culture (early leaf spot) Conidia of the fungus from cryogenic storage were directly mixed into nutrient broth (PDB potato dextrose broth). The inhibition of growth was determined photometrically 4-5 days after application.

Pyrenophora teres = assay: Leaf disc preventative test on barley, Pyrenophora teres (Net Blotch), 5-7 days after application; assay type: in vivo; settings: Table 5
Procedure: as §1
Pyrenophora teres/Barley/Leaf Disc Preventative (Net Blotch)
Barley leaf segments cv. Hasso were placed on agar in a multiwell plate (24-well format) and sprayed with the formulated test compound diluted in water. The leaf segments were inoculated with a spore suspension of the fungus 2 days after application. The inoculated leaf segments were incubated at 20 °C and 65% rh under a light regime of 12 h light/12 h darkness in a climate cabinet and the activity of a compound was assessed as disease control compared to untreated when an appropriate level of disease damage appears in untreated check leaf segments (5-7 days after application).

Pyricularia oryzae = assay type: cell-based; settings: plate column (1): compound of Formula I(a) alone, dilution series lines A (highest) to G; concentrations in Table 8

CC(C)CCCCCCCCCCC(=O)NC1C(=O)NC(CC(=O)O)C(=O)NC(C(O)CC(N)=O)C(=O)NC(CO)C(=O)N(C)C(CC(N)=O)C(=O)N(C)C(Cc2ccccc2)C(=O)NC(CCC(N)=O)C(=O)NC(CCC(=O)O)C(=O)OC1C (centres unmarked) [Formula I(a)] ({Tridecanoyl(12-Me)}-TD[X1]S[NMeN][NMeF]QE; ester 1-C; configuration not given here)
% reduction of fungal growth ([1]; Table 4, 0.82 ppm): 0%
% reduction of fungal growth ([1]; Table 4, 2.5 ppm): 0%
% reduction of fungal growth ([1]; Table 4, 7.4 ppm): 0%
% reduction of fungal growth ([1]; Table 4, 22 ppm): 0%
% reduction of fungal growth ([1]; Table 4, 67 ppm): 90%
% reduction of fungal growth ([1]; Table 4, 200 ppm): 100%
% reduction of fungal growth ([1]; Table 5, 0.82 ppm): 0%
% reduction of fungal growth ([1]; Table 5, 2.5 ppm): 0%
% reduction of fungal growth ([1]; Table 5, 7.4 ppm): 0%
% reduction of fungal growth ([1]; Table 5, 22 ppm): 35%
% reduction of fungal growth ([1]; Table 5, 67 ppm): 90%
% reduction of fungal growth ([1]; Table 5, 200 ppm): 95%
inhibition of growth at 0.41 ppm (Glomerella lagenarium; Table 2): 0%
inhibition of growth at 1.2 ppm (Glomerella lagenarium; Table 2): 0%
inhibition of growth at 3.7 ppm (Glomerella lagenarium; Table 2): 0%
inhibition of growth at 11 ppm (Glomerella lagenarium; Table 2): 50%
inhibition of growth at 33 ppm (Glomerella lagenarium; Table 2): 90%
inhibition of growth at 100 ppm (Glomerella lagenarium; Table 2): 100%
inhibition of growth at 0.41 ppm (Glomerella lagenarium; Table 3): 0%
inhibition of growth at 1.2 ppm (Glomerella lagenarium; Table 3): 0%
inhibition of growth at 3.7 ppm (Glomerella lagenarium; Table 3): 0%
inhibition of growth at 11 ppm (Glomerella lagenarium; Table 3): 0%
inhibition of growth at 33 ppm (Glomerella lagenarium; Table 3): 0%
inhibition of growth at 100 ppm (Glomerella lagenarium; Table 3): 50%
% reduction fungal growth (Botryotinia fuckeliana; Table 2, 0.41 ppm): 0%
% reduction fungal growth (Botryotinia fuckeliana; Table 2, 1.2 ppm): 0%
% reduction fungal growth (Botryotinia fuckeliana; Table 2, 3.7 ppm): 0%
% reduction fungal growth (Botryotinia fuckeliana; Table 2, 11 ppm): 0%
% reduction fungal growth (Botryotinia fuckeliana; Table 2, 33 ppm): 0%
% reduction fungal growth (Botryotinia fuckeliana; Table 2, 100 ppm): 50%
% reduction fungal growth (Botryotinia fuckeliana; Table 3, 3.7 ppm): 50%
% reduction fungal growth (Botryotinia fuckeliana; Table 3, 11 ppm): 50%
% reduction fungal growth (Botryotinia fuckeliana; Table 3, 33 ppm): 70%
% reduction fungal growth (Botryotinia fuckeliana; Table 3, 100 ppm): 70%
inhibition of growth at 0.41 ppm (Mycosphaerella arachidis; Table 2): 0%
inhibition of growth at 1.2 ppm (Mycosphaerella arachidis; Table 2): 0%
inhibition of growth at 3.7 ppm (Mycosphaerella arachidis; Table 2): 100%
inhibition of growth at 11 ppm (Mycosphaerella arachidis; Table 2): 100%
inhibition of growth at 33 ppm (Mycosphaerella arachidis; Table 2): 100%
inhibition of growth at 100 ppm (Mycosphaerella arachidis; Table 2): 100%
inhibition of growth at 0.41 ppm (Mycosphaerella arachidis; Table 3): 0%
inhibition of growth at 1.2 ppm (Mycosphaerella arachidis; Table 3): 0%
inhibition of growth at 3.7 ppm (Mycosphaerella arachidis; Table 3): 0%
inhibition of growth at 11 ppm (Mycosphaerella arachidis; Table 3): 70%
inhibition of growth at 33 ppm (Mycosphaerella arachidis; Table 3): 100%
inhibition of growth at 100 ppm (Mycosphaerella arachidis; Table 3): 100%
% reduction of fungal growth (Pyrenophora teres; 0.82 ppm): 0%
% reduction of fungal growth (Pyrenophora teres; 2.5 ppm): 0%
% reduction of fungal growth (Pyrenophora teres; 7.4 ppm): 0%
% reduction of fungal growth (Pyrenophora teres; 22 ppm): 0%
% reduction of fungal growth (Pyrenophora teres; 67 ppm): 60%
% reduction of fungal growth (Pyrenophora teres; 200 ppm): 80%
control of fungal growth (% reduction of growth in the test well as compared to untreated check) (Pyricularia oryzae): 20%

Reference: patent publication US20260347403A1, “FUNGICIDAL COMPOUND” (priority 2022, published 2026)
